The values that follow come from ChEMBL document CHEMBL2151015, “Discovery of a potent, selective, and orally bioavailable acidic 11β-hydroxysteroid dehydrogenase type 1 (11β-HSD1) inhibitor: discovery of 2-[(3S)-1-[5-(cyclohexylcarbamoyl)-6-propylsulfanylpyridin-2-yl]-3-piperidyl]acetic acid (AZD4017)” (J Med Chem, 2012).

Values after ≈ are worked out from the molar mass of the structure shown.

One data set can be described thus: in vivo. The conditions noted are these: rat.
Data set [1] is described as follows: Fraction unbound in rat plasma after 18 to 19 hrs by equilibrium dialysis. It counts as ADME, cell-free. (In general: In equilibrium dialysis free small molecules cross a membrane that holds back macromolecules.)
Data set [2] is described as follows: Intrinsic clearance in rat hepatocytes assessed per 10^6 cells.
Data set [3] can be described thus: Octanol-buffer partition coefficient, log D of the compound after 30 mins by shake flask method at pH 7.4.
Data set [4] in a line: Oral bioavailability in rat. It counts as ADME, organism-based. The conditions noted are these: in vivo.
The target in data set [5] is 11-beta-hydroxysteroid dehydrogenase 1 (Homo sapiens, UniProt P28845). The data set can be described thus: biochemical.
Sequence of 11-beta-hydroxysteroid dehydrogenase 1 (P28845 whole entry): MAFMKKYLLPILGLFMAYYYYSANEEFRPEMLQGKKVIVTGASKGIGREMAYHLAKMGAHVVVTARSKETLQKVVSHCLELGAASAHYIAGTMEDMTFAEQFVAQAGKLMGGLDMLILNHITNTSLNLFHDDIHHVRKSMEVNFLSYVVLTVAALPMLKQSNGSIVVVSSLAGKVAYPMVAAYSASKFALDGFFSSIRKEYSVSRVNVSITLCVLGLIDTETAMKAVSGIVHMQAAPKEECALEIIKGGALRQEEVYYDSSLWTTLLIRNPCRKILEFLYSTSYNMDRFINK
Description: Inhibition of N-terminal His6-tagged full length human 11betaHSD1 expressed in baculovirus infected cells using cortisone as substrate after 25 mins by HTRF assay
A short description of data set [6]: Clearance in po dosed Sprague-Dawley rat measured up to 24 hrs. The conditions noted are these: in vivo.
Data set [7] is described as follows: Apparent permeability across human Caco2 cells. It counts as ADME, cell-based. As to conditions: Caco-2.
Data set [8] in a line: Aqueous solubility of the compound after 24 hrs by LC-UV analysis at pH 7.4. It counts as physicochemical. The conditions noted are these: aqueous medium.
A short description of data set [9]: Clearance in po dosed Sprague-Dawley rat pre-dosed with ABT administered 2 hrs prior to ABT administration measured up to 24 hrs. As to conditions: in vivo.
Data set [10] can be described thus: AUC (0 to t) in po dosed Sprague-Dawley rat measured up to 24 hrs. The conditions noted are these: plasma. It is filed as ADME, organism-based. Also on record: time < 24 hr, route oral.
Data set [11] can be described thus: Cmax in po dosed Sprague-Dawley rat pre-dosed with ABT administered 2 hrs […] measured up to 24 hrs. It is filed as ADME, organism-based. Set-up: route oral. The conditions noted are these: in vivo.
A short description of data set [12]: AUC (0 to t) in po dosed Sprague-Dawley rat pre-dosed with ABT administered 2 hrs […] measured up to 24 hrs. It is filed as ADME, organism-based. Set-up: time < 24 hr, route oral. The conditions noted are these: plasma.
A short description of data set [13]: Cmax in po dosed Sprague-Dawley rat measured up to 24 hrs. It is filed as ADME, organism-based. Set-up: route oral. The conditions noted are these: in vivo.

One may read the clearance as the rate of elimination divided by the concentration. A low value points to a low capacity for elimination. In general, fraction unbound refers to free concentration divided by total concentration. Broadly, the hepatocyte CLint is the capacity of the preparation to metabolise the compound, expressed as a volume cleared per time. Read a low hepatocyte CLint as slow turnover. A word on the logD: it is the decadic logarithm of the distribution of all forms, ionised or not, between an organic phase and buffer at a given pH. A high value points to a more lipophilic compound. As a reminder, the bioavailability is dose-corrected exposure relative to a reference, in per cent. A high value points to much systemic uptake. For the molecule `CCCSc1ncccc1C(=O)N(C)C1CCCCC1`, in the data set “in vivo”, the clearance stood at 48 mL/min/kg. Also, the fraction unbound in [1] worked out at 0.1. This molecule also gave a hepatocyte CLint in [2] above 350 µL/min/1e6 cells. This molecule had a pH-dependent lipophilicity (logD) at 0.5 h in [3] (octanol/buffer) of 3.4. Moreover, the bioavailability in [4] was 0%.

`CCCSc1nc(N2CCC[C@H](CC(=O)O)C2)ccc1C(=O)NC1CCCCC1` had a clearance in the data set “in vivo” of 1 mL/min/kg. The fraction unbound in [1] worked out at 0.006. This molecule also registered a hepatocyte CLint in [2] of 8 µL/min/1e6 cells. This molecule showed a logD at 0.5 h in [3] (octanol/buffer) of 2.2. The same molecule gave a bioavailability in [4] of 79%.

`CCCSc1nc(N2CCC(CC(=O)O)CC2)ccc1C(=O)NC1CCCCC1` came in with a clearance in the data set “in vivo” of 4 mL/min/kg. This molecule also showed a fraction unbound in data set [1] of 0.032. The same molecule yielded a hepatocyte CLint in data set [2] of 6 µL/min/1e6 cells. For the same molecule, the logD at 0.5 h in [3] (octanol/buffer) was found to be 2. The molecule also returned a bioavailability in data set [4] of 90%.

Turning to `CCCSc1ncccc1C(=O)N(C)C1CCOCC1`, the clearance in “in vivo” worked out at 46 mL/min/kg. In addition, the fraction unbound in data set [1] came to 0.49. In data set [2], this molecule registered a hepatocyte CLint of 90 µL/min/1e6 cells. In data set [3] (octanol/buffer), this molecule registered a logD at 0.5 h of 1.6. This molecule also gave a bioavailability in [4] of 0%.

As to `CCCN(C)c1nc(N2CCC[C@@H](CC(=O)O)C2)ccc1C(=O)NC1CCCCC1`, the clearance in “in vivo” worked out at 15 mL/min/kg. Further, the fraction unbound in data set [1] stood at 0.018. The same molecule came in with a hepatocyte CLint in [2] of 12 µL/min/1e6 cells. The logD at 0.5 h in data set [3] (octanol/water) came to 2.3. The molecule further displayed a bioavailability in data set [4] of 39%.

In “in vivo”, `CCCSc1ncccc1C(=O)NC1CCC(F)(F)CC1` gave a clearance of 30 mL/min/kg. This molecule also displayed a fraction unbound in [1] of 0.29. Besides, the hepatocyte CLint in [2] turned out to be 130 µL/min/1e6 cells. The bioavailability in [4] was 0%.

The molecule `CCCSc1ncccc1C(=O)N[C@@H]1[C@@H]2CC3C[C@H]1C[C@@](O)(C3)C2` registered a clearance in the data set “in vivo” of 110 mL/min/kg. In data set [1], this molecule displayed a fraction unbound above 0.5. The same molecule showed a hepatocyte CLint in data set [2] of 49 µL/min/1e6 cells. For the same molecule, in data set [3] (octanol/buffer), the logD at 0.5 h worked out at 2.3. Besides, the bioavailability in [4] worked out at 11%.

A word on the IC50: it is the point on the concentration scale where inhibition reaches its midpoint. Low readings indicate inhibition by little substance, high ones a need for much substance. For `CCCSc1ncccc1C(=O)N[C@H]1CC[C@@H](C(=O)O)CC1`, in the data set “in vivo”, the clearance came to 2.5 mL/min/kg. Moreover, the fraction unbound in [1] was 0.41. In data set [2], the hepatocyte CLint was below 2 µL/min/1e6 cells. The same molecule showed an IC50 in data set [5] above 30 µM. The same molecule returned a logD at 0.5 h in data set [3] (octanol/buffer) below 0.5. The molecule further came in with a bioavailability in [4] of 81%.

`CCCSc1nc(N2CCCC(C(=O)O)C2)ccc1C(=O)NC1CCCCC1` (stereo not given) showed a clearance in the data set “in vivo” of 4 mL/min/kg. The molecule also registered a fraction unbound in [1] of 0.023. This molecule registered a hepatocyte CLint in data set [2] of 6 µL/min/1e6 cells. The logD at 0.5 h in data set [3] (octanol/buffer) is 1.7. Further, in [4], the bioavailability came out at 45%.

The molecule `CCCSc1ncccc1C(=O)N(C)[C@H]1[C@@H]2CC3C[C@H]1C[C@@](O)(C3)C2` yielded a fraction unbound in data set [1] of 0.41. Also, the hepatocyte CLint in [2] stood at 140 µL/min/1e6 cells. The same molecule displayed a logD at 0.5 h in data set [3] (octanol/water) of 2.5.

Regarding `CCCSc1nc(Oc2ccc(CC(=O)O)cc2)ccc1C(=O)NC1CCCCC1`, in [1], the fraction unbound worked out at 0.003. In data set [2], this molecule registered a hepatocyte CLint below 2 µL/min/1e6 cells. This molecule also displayed a pH-dependent lipophilicity (logD) at 0.5 h in data set [3] (octanol/buffer) of 1.8.

For the molecule `CCCSc1ncccc1C(=O)N(C)[C@@H]1[C@@H]2CC3C[C@H]1C[C@@](O)(C3)C2`, the clearance in the data set “in vivo” was 24 mL/min/kg. In [1], the fraction unbound stood at 0.2. In data set [2], the hepatocyte CLint was found to be 140 µL/min/1e6 cells. In data set [3] (octanol/water), the logD at 0.5 h was determined as 2.5. Moreover, the bioavailability in [4] was determined as 0%.

As for `CCCSc1ncccc1C(=O)N1CCCC1c1ccncc1` (stereo not given), the clearance in “in vivo” was found to be 39 mL/min/kg. Further, the fraction unbound in data set [1] was 0.13. Also, the hepatocyte CLint in data set [2] worked out at 120 µL/min/1e6 cells. In data set [3] (octanol/buffer), the logD at 0.5 h stood at 2. The molecule further had a bioavailability in [4] of 0%.

In turn, `CCCOc1nc(N2CCC[C@@H](CC(=O)O)C2)ccc1C(=O)NC1CCCCC1` showed a clearance in “in vivo” of 9 mL/min/kg. Further, in [1], the fraction unbound is 0.006. For the same molecule, in [2], the hepatocyte CLint stood at 9 µL/min/1e6 cells. The logD at 0.5 h in data set [3] (octanol/buffer) was 2.8. In data set [4], this molecule gave a bioavailability above 100%.

For the molecule `CCCSc1nc(N2CCC(C(=O)O)CC2)ccc1C(=O)NC1CCCCC1`, in “in vivo”, the clearance was 8 mL/min/kg. The fraction unbound in data set [1] was 0.03. For the same molecule, the hepatocyte CLint in data set [2] was below 2 µL/min/1e6 cells. Moreover, the logD at 0.5 h in [3] (octanol/water) was found to be 1.6. Further, the bioavailability in data set [4] is above 100%.

The molecule `CCCSc1nc(Oc2cccc(CCC(=O)O)c2)ccc1C(=O)NC1CCCCC1` gave a fraction unbound in data set [1] of 0.006. This molecule came in with an intrinsic clearance (hepatocyte CLint) in data set [2] of 15 µL/min/1e6 cells. The same molecule gave a logD at 0.5 h in data set [3] (octanol/buffer) of 1.7.

One may read the CL/F as clearance divided by bioavailability, as obtained after extravascular dosing. For orientation: Papp means the rate of passage across a membrane or cell layer, normalised by area and donor concentration. In general, solubility refers to how much of the substance goes into solution per volume. A lower solubility goes with little dissolved substance. `O=S(=O)(Cc1c(F)cccc1F)N1CCN(c2ncccc2C(F)(F)F)CC1` returned a CL/F at 24 h in data set [6] of 20 mL/min/kg. In data set [7], the Papp came out at 10 ×10⁻⁶ cm/s. In data set [1], this molecule came in with a fraction unbound of 0.005. This molecule displayed a solubility at 24 h in data set [8] of 2 µM (≈ 0.843 µg/mL). Besides, the hepatocyte CLint in [2] is 272 µL/min/1e6 cells. In [9], the CL/F amounted to 14 mL/min/kg. This molecule also had a logD at 0.5 h in data set [3] (octanol/buffer) of 3.9. Also, the bioavailability in data set [4] was found to be 0%.

Molecule `CCCSc1nc(N2CCCCC2C(=O)O)ccc1C(=O)NC1CCCCC1` (stereo not given) showed a clearance in the data set “in vivo” of 12 mL/min/kg. For the same molecule, the fraction unbound in [1] turned out to be 0.019. Moreover, the hepatocyte CLint in [2] amounted to 10 µL/min/1e6 cells. This molecule also registered a logD at 0.5 h in data set [3] (octanol/buffer) of 1.4. The same molecule registered a bioavailability in data set [4] above 100%.

In turn, `CCCCc1nc(N2CCC[C@@H](CC(=O)O)C2)ccc1C(=O)NC1CCCCC1` registered a clearance in the data set “in vivo” of 4 mL/min/kg. In data set [1], this molecule came in with a fraction unbound of 0.06. The molecule also had a hepatocyte CLint in data set [2] below 2 µL/min/1e6 cells. In addition, the pH-dependent lipophilicity (logD) at 0.5 h in data set [3] (octanol/buffer) is 1.6. In data set [4], this molecule registered a bioavailability of 57%.

Regarding `CCCSc1nc(NC[C@H]2CC[C@H](C(=O)O)CC2)ccc1C(=O)NC1CCCCC1`, the clearance in “in vivo” was 8 mL/min/kg. For the same molecule, the fraction unbound in data set [1] was found to be 0.015. Further, in data set [2], the hepatocyte CLint is 8 µL/min/1e6 cells. In addition, the logD at 0.5 h in [3] (octanol/buffer) came to 2.6. This molecule also returned a bioavailability in [4] of 81%.

The term AUC(0-t) denotes the area under the concentration-time curve up to a stated or last time point. A lower AUC(0-t) goes with low exposure. The term Cmax denotes the maximum level reached in the sampled fluid or tissue. Turning to `CCCSc1ncccc1C(=O)NC1CCCCC1`, the AUC(0-t) at 24 h in data set [10] was 80 ng·h/mL; in [12], 2510 ng·h/mL. In data set [7], the apparent permeability coefficient (Papp) was 27 ×10⁻⁶ cm/s. In addition, the fraction unbound in [1] stood at 0.13. In data set [8], this molecule returned a solubility at 24 h of 82 µM (≈ 22.8 µg/mL). Further, the Cmax worked out at 514 ng/mL in [11] and 39 ng/mL in [13]. In [3] (octanol/buffer), this molecule registered a logD at 0.5 h of 3.2. This molecule had a bioavailability in [4] of 0%.

`CCCNc1nc(N2CCC[C@@H](CC(=O)O)C2)ccc1C(=O)NC1CCCCC1` showed a clearance in “in vivo” of 4 mL/min/kg. In addition, in [1], the fraction unbound amounted to 0.029. Further, the hepatocyte CLint in data set [2] turned out to be 7 µL/min/1e6 cells. In data set [3] (octanol/buffer), this molecule showed a logD at 0.5 h of 2.3. This molecule displayed a bioavailability in data set [4] of 72%.

`CCCSc1nc(N[C@H]2CC[C@H](C(=O)O)CC2)ccc1C(=O)NC1CCCCC1`: the clearance in “in vivo” was determined as 6 mL/min/kg. In addition, the fraction unbound in [1] came out at 0.029. The molecule also registered a hepatocyte CLint in data set [2] below 2 µL/min/1e6 cells. Further, the bioavailability in [4] is above 100%.
